Results taken from publication PMC7650660, “Potential of Cell-Free Supernatant from Lactobacillus plantarum NIBR97, Including Novel Bacteriocins, as a Natural Alternative to Chemical Disinfectants” (Pharmaceuticals, 2020).
≈ marks a conversion by molar mass, not a printed value. Peptide text beside a SMILES is read from it.

What was measured:
[1] = system: Salmonella Typhimurium; format: cell-based; details: synthetic peptides against S. Typhimurium; Figure S3
Method: L. plantarum NIBR97 was incubated at 37 °C for 24 h in an MRS liquid medium (10 g/L peptone, 8 g/L meat extract, 4 g/L yeast extract, 20 g/L d(+)-glucose, 2 g/L dipotassium hydrogen phosphate, 5 g/L sodium acetate trihydrate, 2 g/L triammonium citrate, 0.2 g/L magnesium sulfate heptahydrate, and 0.05 g/L manganous sulfate tetrahydrate). The cultural broth was centrifuged for 20 min at 2000× g, and the centrifugal supernatant was collected and then sterilized by a 0.22 μm filtration. The sterilized fluid was either applied directly for the examination of antimicrobial activity or fractionated and stored at −80 °C until use. The assessment of antimicrobial activity on a microtiter plate was performed by some modification of the dilution assay of Wiegand et al.. The MIC50 and MIC90 were expressed as total proteins equivalent (μg) per volume (mL) of the sample, and the effect of proteinase K treatment was examined by a previously described procedure.
Figure 3. Antibacterial activity of synthetic Plantaricins identified from the L. plantarum NIBR97
genome. Pln 1, 2, 3, 4 and 5 were synthesized according to the amino acid sequences in Figure 3, and
further examined for their antibacterial activity against a Salmonella enterica serotype, S.
The Y axis in the graphs represents the relative growth of S. Typhimurium. […]

[2] = system: HEK-293T cells (human host cells); assay: Cytotoxic effect on host cells (bright-field images) in the lentivirus test; format: cell-based; details: lentiviruses treated with 5 μg/μL of synthetic peptides
Method: (A) For fluorescence microscopy, we treated GFP-labeled lentiviruses with the cell-free supernatant for 5 min and 24 h, and then were infected in HEK-293T human host cells. The 1× and 5× correspond to the concentrations treated to the lentiviruses, 79.15 and 395.75 μg total proteins/mL, respectively. The bright-field images (Bright) indicate the HEK-293T cells, and the green signals in the fluorescent images (GFP) represent the GFP-labeled lentiviruses. (B) For scanning electron microscopy, the GFP-labeled lentiviruses were treated without (a) or with the cell-free supernatant (395.75 μg total proteins/mL) (b) for 5 min.
Figure 5 Fluorescence micrographs of HEK-293T cells infected with GFP-labeled lentiviruses treated with synthetic Pln 3 and 5. The lentiviruses were treated without (control) or with the synthetic peptides (1 to 5 μg/μL) Pln 3 (A) and 5 (B) for 5 min or 24 h, and then the HEK-293T human host cells were infected. The bright-field images (Bright) indicate the HEK-293T cells, and the green signals in the fluorescent images (GFP) represent the GFP-labeled lentiviruses.
For the anti-viral test, we co-incubated 2 μL of lentivirus soup (2.8 × 10^6 lentiviruses/μL) with 2 μL of test sample for 5 min and 24 h at 25 °C. After the co-incubation, 2 μL from the total 4 μL of the test sample–lentivirus mixture was infected in HEK-293T cells (1 × 10^4 cells per well).

Row | SMILES | MIC50 [1] | cytotoxicity on the human host cells [2]
1 | CSCC[C@H](NC(=O)CNC(=O)[C@@H](NC(=O)[C@@H]1CCCN1C(=O)[C@H](CCSC)NC(=O)CNC(=O)[C@H](CC(N)=O)NC(=O)[C@H](CC(N)=O)NC(=O)[C@H](Cc1ccc(O)cc1)NC(=O)[C@@H](NC(=O)[C@H](CCC(N)=O)NC(=O)[C@H](CS)NC(=O)[C@H](CCCNC(=N)N)NC(=O)[C@H](CCCNC(=N)N)NC(=O)[C@H](CO)NC(=O)[C@H](CCCCN)NC(=O)[C@@H](N)CCCCN)C(C)C)[C@@H](C)O)C(=O)N[C@@H](Cc1ccc(O)cc1)C(=O)N[C@H](C(=O)N[C@@H](CO)C(=O)N[C@@H](CS)C(=O)O)[C@@H](C)O [Pln 3] (H-KKSRRCQVYNNGMPTGMYTSC-OH) | 5170 µg/mL (≈ 2130 µM) | exhibited a cytotoxicity on the human host cells
2 | CC[C@H](C)[C@H](NC(=O)CNC(=O)[C@@H](NC(=O)[C@H](C)NC(=O)[C@H](CCSC)NC(=O)[C@H](C)NC(=O)[C@H](CCCCN)NC(=O)[C@H](Cc1ccccc1)NC(=O)[C@@H]1CCCN1C(=O)[C@H](CCC(=O)O)NC(=O)[C@H](CCCNC(=N)N)NC(=O)[C@@H](NC(=O)[C@@H](NC(=O)[C@@H]1CCCN1)[C@@H](C)CC)C(C)C)C(C)C)C(=O)N[C@H](C(=O)N[C@@H](CC(C)C)C(=O)N[C@@H](C)C(=O)N[C@H](C(=O)N[C@@H](CCSC)C(=O)N[C@@H](CO)C(=O)NCC(=O)N[C@@H](CC(C)C)C(=O)N[C@@H](CC(C)C)C(=O)N[C@H](C(=O)N[C@H](C(=O)O)[C@@H](C)O)C(C)C)C(C)C)[C@@H](C)CC [Pln 4] (H-PIVREPFKAMAVGIILAVMSGLLVT-OH) | 5650 µg/mL (≈ 2150 µM) | 
3 | CC(C)C[C@H](NC(=O)[C@H](CCCNC(=N)N)NC(=O)[C@H](CC(N)=O)NC(=O)[C@H](CCCNC(=N)N)NC(=O)[C@H](CC(C)C)NC(=O)[C@H](Cc1ccccc1)NC(=O)[C@H](CCCNC(=N)N)NC(=O)[C@H](CCCCN)NC(=O)[C@H](CCCCN)NC(=O)[C@H](C)NC(=O)[C@@H](N)CCCCN)C(=O)N[C@@H](CO)C(=O)N[C@@H](CCC(N)=O)C(=O)N[C@@H](CCC(N)=O)C(=O)N[C@@H](C)C(=O)N[C@@H](CCCNC(=N)N)C(=O)N[C@@H](CCCCN)C(=O)N[C@@H](C)C(=O)N[C@@H](CCCNC(=N)N)C(=O)N[C@H](C(=O)N[C@@H](CCCCN)C(=O)O)[C@@H](C)O [Pln 5] (H-KAKKRFLRNRLSQQARKARTK-OH) | 4450 µg/mL (≈ 1720 µM) | exhibited a cytotoxicity on the human host cells
4 | CC[C@H](C)[C@H](NC(=O)CNC(=O)[C@@H](NC(=O)[C@H](CO)NC(=O)CNC(=O)[C@@H](NC(=O)[C@H](CC(C)C)NC(=O)[C@H](CO)NC(=O)CNC(=O)[C@H](CC(C)C)NC(=O)[C@@H](N)C(C)C)[C@@H](C)CC)C(C)C)C(=O)NCC(=O)N[C@H](C(=O)N[C@@H](CC(C)C)C(=O)N[C@@H](CO)C(=O)N[C@@H](CO)C(=O)N[C@@H](CC(C)C)C(=O)N[C@@H](C)C(=O)N[C@@H](C)C(=O)N[C@@H](CCCNC(=N)N)C(=O)N[C@@H](Cc1ccc(O)cc1)C(=O)N[C@@H](CCCCN)C(=O)O)C(C)C [Pln 1] (H-VLGSLIGSVGIGVLSSLAARYK-OH) | 5480 µg/mL (≈ 2540 µM) | 
5 | CC[C@H](C)[C@H](N)C(=O)N[C@@H](Cc1ccc(O)cc1)C(=O)N1CCC[C@H]1C(=O)N[C@@H](CCC(=O)O)C(=O)N[C@@H](CCCCN)C(=O)N[C@@H](CCC(N)=O)C(=O)N1CCC[C@H]1C(=O)N[C@@H](CCC(=O)O)C(=O)N[C@@H](CCC(=O)O)C(=O)N1CCC[C@H]1C(=O)N[C@H](C(=O)N[C@@H](CCCNC(=N)N)C(=O)N[C@@H](CCCNC(=N)N)C(=O)O)C(C)C [Pln 2] (H-IYPEKQPEEPVRR-OH) | 4840 µg/mL (≈ 2950 µM) | 
